# Assay results as given in US11912701B2, “Protein kinase inhibitors for promoting liver regeneration or reducing or preventing hepatocyte death” (HEPAREGENIX GMBH, priority 2018, dated 2024).
# Columns and labels:
# Type in all cases: biochemical
# [1] = molecular target: T1, BRaf (Homo sapiens, UniProt P15056); experiment: 33PanQinase enzyme assay, BRaf; settings: ratio IC50(BRaf)/IC50(MKK4)
# T1 construct: purchased ProQinase GmbH, Freiburg, Germany (33PanQinase Assay Service)
# T1 sequence (P15056 whole entry, species assumed): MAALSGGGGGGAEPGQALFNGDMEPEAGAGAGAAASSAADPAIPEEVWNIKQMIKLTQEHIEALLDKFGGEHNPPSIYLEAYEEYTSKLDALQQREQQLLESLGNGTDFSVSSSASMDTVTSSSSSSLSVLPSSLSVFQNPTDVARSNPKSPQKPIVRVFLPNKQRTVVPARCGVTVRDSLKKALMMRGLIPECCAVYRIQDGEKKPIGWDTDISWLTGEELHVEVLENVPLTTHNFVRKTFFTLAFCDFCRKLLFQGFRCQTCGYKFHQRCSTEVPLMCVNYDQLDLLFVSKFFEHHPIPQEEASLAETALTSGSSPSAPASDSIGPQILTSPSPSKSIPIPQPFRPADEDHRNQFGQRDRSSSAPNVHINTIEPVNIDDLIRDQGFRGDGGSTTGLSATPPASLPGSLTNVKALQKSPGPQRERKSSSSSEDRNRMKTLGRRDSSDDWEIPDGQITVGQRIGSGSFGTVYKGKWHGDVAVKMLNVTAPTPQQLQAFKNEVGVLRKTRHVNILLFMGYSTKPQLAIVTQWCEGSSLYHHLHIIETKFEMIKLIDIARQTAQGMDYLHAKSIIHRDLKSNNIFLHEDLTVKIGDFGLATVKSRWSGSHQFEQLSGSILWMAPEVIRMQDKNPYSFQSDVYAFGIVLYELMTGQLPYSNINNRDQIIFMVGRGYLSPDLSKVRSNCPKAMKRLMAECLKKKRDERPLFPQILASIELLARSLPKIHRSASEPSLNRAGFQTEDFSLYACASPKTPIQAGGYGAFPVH
# Description: (§1) The kinase activities of the compounds of the invention were measured using the 33PanQinase® Assay Service provided by ProQinase GmbH, Freiburg, Germany. Details of the assay conditions are disclosed on the website of ProQinase (https://www.proginase.com/products-services-biochemical-assay-services/kinase-assays). In brief, all kinase assays were performed in 96-well FlashPlates™ from PerkinElmer (Boston, MA, USA) in a 50 μl reaction volume. The reaction cocktail was pipetted in four steps in the following order: • 20 μl of assay buffer (standard buffer) • 5 μl of ATP solution (in H2O) • 5 μl of test compound (in 10% DMSO) • 20 μl enzyme/subtrate mix
# (§2) The reaction cocktails were incubated at 30° C. for 60 minutes. The reaction is stopped with 50 μl of 2% (v/v) H3PO4, plates were aspirated and washed two times with 200 μl 0.9% (w/v) NaCl. Incorporation of ^33Pi was determined with a microplate scintillation counter (Microbeta, Wallac).
# (§3) All assays were performed with a BeckmanCoulter/SAGIAN™ Core System.
# (§4) In case of single concentration assays, the potency of the test compound is expressed as % residual activity. […] The fitting method used was a least-squares fit.
# (§5) Selectivity of test compounds against BRaf, JNK1 and MKK7, altogether denominated as off-targets was calculated by the ratio of IC50 (off-target)/IC50 (MKK4) and categorized as follows: […]
# [2] = molecular target: JNK1 (Homo sapiens, UniProt P45983); experiment: 33PanQinase enzyme assay, JNK1; set-up: purchased ProQinase GmbH, Freiburg, Germany (33PanQinase Assay Service); settings: ratio IC50(JNK1)/IC50(MKK4)
# Chain of JNK1 (P45983 whole entry): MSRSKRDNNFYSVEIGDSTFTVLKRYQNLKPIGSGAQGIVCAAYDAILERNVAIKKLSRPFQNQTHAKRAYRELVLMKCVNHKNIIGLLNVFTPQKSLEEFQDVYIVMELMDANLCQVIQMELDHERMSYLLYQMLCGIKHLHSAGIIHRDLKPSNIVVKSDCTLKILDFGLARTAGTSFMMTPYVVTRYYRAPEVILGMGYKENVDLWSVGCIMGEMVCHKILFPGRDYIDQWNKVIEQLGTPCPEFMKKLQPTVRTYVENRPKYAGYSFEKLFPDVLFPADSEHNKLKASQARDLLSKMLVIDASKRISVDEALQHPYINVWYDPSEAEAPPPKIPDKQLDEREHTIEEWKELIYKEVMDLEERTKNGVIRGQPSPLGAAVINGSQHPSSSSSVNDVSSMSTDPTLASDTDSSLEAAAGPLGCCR
# Description: as §1, §2, §3, §4, §5
# [3] = molecular target: T2, MKK7 (Homo sapiens, UniProt O14733); experiment: 33PanQinase enzyme assay, MKK7; set-up: purchased ProQinase GmbH, Freiburg, Germany (33PanQinase Assay Service); settings: ratio IC50(MKK7)/IC50(MKK4)
# T2 sequence (O14733 1-419): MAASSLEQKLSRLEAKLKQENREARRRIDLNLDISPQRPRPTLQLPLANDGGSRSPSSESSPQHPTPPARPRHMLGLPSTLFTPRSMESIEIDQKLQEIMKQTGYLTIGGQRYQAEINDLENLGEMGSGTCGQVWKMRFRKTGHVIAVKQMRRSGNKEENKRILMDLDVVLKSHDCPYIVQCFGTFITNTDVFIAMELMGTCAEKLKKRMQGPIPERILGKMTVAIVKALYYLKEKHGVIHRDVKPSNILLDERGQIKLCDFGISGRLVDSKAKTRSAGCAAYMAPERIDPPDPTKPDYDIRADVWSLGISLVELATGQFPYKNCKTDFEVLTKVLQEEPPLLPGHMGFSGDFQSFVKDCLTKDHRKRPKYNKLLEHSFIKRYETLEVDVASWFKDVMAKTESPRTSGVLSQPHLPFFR
# Description: as §1, §2, §3, §4, §5
# [4] = molecular target: T3, MKK4 (Homo sapiens, UniProt P45985); experiment: 33PanQinase enzyme assay, MKK4; settings: assay 'IC50'; read-out: Potency MKK4 (IC50)
# T3 construct: purchased ProQinase GmbH, Freiburg, Germany (33PanQinase Assay Service)
# T3 sequence (P45985 1-399): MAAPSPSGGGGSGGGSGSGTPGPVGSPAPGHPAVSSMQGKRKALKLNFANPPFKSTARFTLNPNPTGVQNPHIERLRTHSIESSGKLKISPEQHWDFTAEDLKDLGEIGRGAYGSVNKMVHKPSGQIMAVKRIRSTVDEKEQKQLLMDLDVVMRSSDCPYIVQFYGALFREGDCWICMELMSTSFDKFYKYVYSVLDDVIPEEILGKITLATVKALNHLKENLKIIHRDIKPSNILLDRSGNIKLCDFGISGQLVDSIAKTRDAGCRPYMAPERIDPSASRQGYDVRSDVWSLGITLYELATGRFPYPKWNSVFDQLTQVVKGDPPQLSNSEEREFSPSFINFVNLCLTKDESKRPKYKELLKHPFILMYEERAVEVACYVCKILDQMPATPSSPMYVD
# Description: as §1, §2, §3, §4
# Inhibition potency against MKK4 is categorized as follows:
# Assay at single concentration (100 nM):
structure (smiles),measurement,setting,value
"CCCS(=O)(=O)Nc1ccc(F)c(C(=O)c2c[nH]c3ncc(-c4cncnc4)cc23)c1F [Example 91, N-(2,4-difluoro-3-(5-(pyrimidin-5-yl)-1H-pyrrolo[2,3-b]pyridine-3-carbonyl)phenyl)propane-1-sulfonamide]","Selectivity Braf, IC50(off-target)/IC50(MKK4)",[1],◯ (3 ≥ IC50(off-target)/IC50(MKK4))
same,"Selectivity JNK1, IC50(off-target)/IC50(MKK4)",[2],◯ (3 ≥ IC50(off-target)/IC50(MKK4))
same,"Selectivity IVIKK7, IC50(off-target)/IC50(MKK4)",[3],++ (100 ≥ IC50(off-target)/IC50(MKK4) > 10)
same,IC50,[4],1000 to 10000 nM
"CCCS(=O)(=O)Nc1ccc(F)c(C(=O)c2c[nH]c3ncc(-c4ccc(P(C)(C)=O)cc4)cc23)c1F [Example 93, N-(3-(5-(4-(dimethylphosphoryl)phenyl)-1H-pyrrolo[2,3-b]pyridine-3-carbonyl)-2,4-difluorophenyl)propane-1-sulfonamide]","Selectivity Braf, IC50(off-target)/IC50(MKK4)",[1],◯ (3 ≥ IC50(off-target)/IC50(MKK4))
same,"Selectivity JNK1, IC50(off-target)/IC50(MKK4)",[2],++ (100 ≥ IC50(off-target)/IC50(MKK4) > 10)
same,"Selectivity IVIKK7, IC50(off-target)/IC50(MKK4)",[3],+++ (IC50(off-target)/IC50(MKK4) > 100)
same,IC50,[4],100 to 1000 nM
"CCCS(=O)(=O)Nc1ccc(F)c(C(=O)c2c[nH]c3ncc(C(=O)NOCCO)cc23)c1F [Example 94, 3-(2,6-difluoro-3-(propylsulfonamido)benzoyl)-N-(2-hydroxyethoxy)-1H-pyrrolo[2,3-b]pyridine-5-carboxamide]","Selectivity Braf, IC50(off-target)/IC50(MKK4)",[1],◯ (3 ≥ IC50(off-target)/IC50(MKK4))
same,"Selectivity JNK1, IC50(off-target)/IC50(MKK4)",[2],+ (10 ≥ IC50(off-target)/IC50(MKK4) > 3)
same,"Selectivity IVIKK7, IC50(off-target)/IC50(MKK4)",[3],+++ (IC50(off-target)/IC50(MKK4) > 100)
same,IC50,[4],< 100 nM
"CCCS(=O)(=O)Nc1ccc(F)c(C(=O)c2c[nH]c3ncc(-c4ccc5c(c4)C=C(C)N=S5(C)=O)cc23)c1F (stereo not shown) [Example 95, N-(3-(5-(1,3-dimethyl-1-oxido-1l4-benzo[e][1,2]thiazin-6-yl)-1H-pyrrolo[2,3-b]pyridine-3-carbonyl)-2,4-difluorophenyl)propane-1-sulfonamide]","Selectivity Braf, IC50(off-target)/IC50(MKK4)",[1],◯ (3 ≥ IC50(off-target)/IC50(MKK4))
same,"Selectivity JNK1, IC50(off-target)/IC50(MKK4)",[2],◯ (3 ≥ IC50(off-target)/IC50(MKK4))
same,"Selectivity IVIKK7, IC50(off-target)/IC50(MKK4)",[3],+++ (IC50(off-target)/IC50(MKK4) > 100)
same,IC50,[4],100 to 1000 nM
"CCCS(=O)(=O)Nc1ccc(F)c(C(=O)c2c[nH]c3ncc(-c4ccccc4C(F)(F)F)cc23)c1F [Example 97, N-(2,4-difluoro-3-(5-(2-(trifluoromethyl)phenyl)-1H-pyrrolo[2,3-b]pyridine-3-carbonyl)phenyl)propane-1-sulfonamide]","Selectivity Braf, IC50(off-target)/IC50(MKK4)",[1],◯ (3 ≥ IC50(off-target)/IC50(MKK4))
same,"Selectivity JNK1, IC50(off-target)/IC50(MKK4)",[2],+ (10 ≥ IC50(off-target)/IC50(MKK4) > 3)
same,"Selectivity IVIKK7, IC50(off-target)/IC50(MKK4)",[3],+++ (IC50(off-target)/IC50(MKK4) > 100)
same,IC50,[4],100 to 1000 nM
"CCCS(=O)(=O)Nc1ccc(F)c(C(=O)c2c[nH]c3ncc(-c4ccc(N(C)C)cc4)cc23)c1F [Example 98, N-(3-(5-(4-(dimethylamino)phenyl)-1H-pyrrolo[2,3-b]pyridine-3-carbonyl)-2,4-difluorophenyl)propane-1-sulfonamide]","Selectivity Braf, IC50(off-target)/IC50(MKK4)",[1],◯ (3 ≥ IC50(off-target)/IC50(MKK4))
same,"Selectivity JNK1, IC50(off-target)/IC50(MKK4)",[2],+ (10 ≥ IC50(off-target)/IC50(MKK4) > 3)
same,"Selectivity IVIKK7, IC50(off-target)/IC50(MKK4)",[3],++ (100 ≥ IC50(off-target)/IC50(MKK4) > 10)
same,IC50,[4],1000 to 10000 nM
"CCCS(=O)(=O)Nc1ccc(F)c(C(=O)c2c[nH]c3ncc(-c4ccc5ccccc5c4)cc23)c1F [Example 99, N-(2,4-difluoro-3-(5-(naphthalen-2-yl)-1H-pyrrolo[2,3-b]pyridine-3-carbonyl)phenyl)propane-1-sulfonamide]","Selectivity Braf, IC50(off-target)/IC50(MKK4)",[1],◯ (3 ≥ IC50(off-target)/IC50(MKK4))
same,"Selectivity JNK1, IC50(off-target)/IC50(MKK4)",[2],◯ (3 ≥ IC50(off-target)/IC50(MKK4))
same,"Selectivity IVIKK7, IC50(off-target)/IC50(MKK4)",[3],+++ (IC50(off-target)/IC50(MKK4) > 100)
same,IC50,[4],100 to 1000 nM
"CCCS(=O)(=O)Nc1ccc(F)c(C(=O)c2c[nH]c3ncc(-c4ccc(C(C)(C)C)cc4)cc23)c1F [Example 113, N-(3-(5-(4-(tert-butyl)phenyl)-1H-pyrrolo[2,3-b]pyridine-3-carbonyl)-2,4-difluorophenyl)propane-1-sulfonamide]","Selectivity Braf, IC50(off-target)/IC50(MKK4)",[1],◯ (3 ≥ IC50(off-target)/IC50(MKK4))
same,"Selectivity JNK1, IC50(off-target)/IC50(MKK4)",[2],+ (10 ≥ IC50(off-target)/IC50(MKK4) > 3)
same,"Selectivity IVIKK7, IC50(off-target)/IC50(MKK4)",[3],+++ (IC50(off-target)/IC50(MKK4) > 100)
same,IC50,[4],100 to 1000 nM
"CCCS(=O)(=O)Nc1ccc(F)c(C(=O)c2c[nH]c3ncc(-c4cccc(C)c4)cc23)c1F [Example 114, N-(2,4-difluoro-3-(5-(m-tolyl)-1H-pyrrolo[2,3-b]pyridine-3-carbonyl)phenyl)propane-1-sulfonamide]","Selectivity Braf, IC50(off-target)/IC50(MKK4)",[1],◯ (3 ≥ IC50(off-target)/IC50(MKK4))
same,"Selectivity JNK1, IC50(off-target)/IC50(MKK4)",[2],+ (10 ≥ IC50(off-target)/IC50(MKK4) > 3)
same,"Selectivity IVIKK7, IC50(off-target)/IC50(MKK4)",[3],+++ (IC50(off-target)/IC50(MKK4) > 100)
same,IC50,[4],100 to 1000 nM
"CCCS(=O)(=O)Nc1ccc(F)c(C(=O)c2c[nH]c3ncc(-c4cccc(F)c4)cc23)c1F [Example 115, N-(2,4-difluoro-3-(5-(3-fluorophenyl)-1H-pyrrolo[2,3-b]pyridine-3-carbonyl)phenyl)propane-1-sulfonamide]","Selectivity Braf, IC50(off-target)/IC50(MKK4)",[1],◯ (3 ≥ IC50(off-target)/IC50(MKK4))
same,"Selectivity JNK1, IC50(off-target)/IC50(MKK4)",[2],+ (10 ≥ IC50(off-target)/IC50(MKK4) > 3)
same,"Selectivity IVIKK7, IC50(off-target)/IC50(MKK4)",[3],+++ (IC50(off-target)/IC50(MKK4) > 100)
same,IC50,[4],100 to 1000 nM
"CCCS(=O)(=O)Nc1ccc(F)c(C(=O)c2c[nH]c3ncc(-c4ccc(NC(C)=O)cc4)cc23)c1F [Example 116, N-(4-(3-(2,6-difluoro-3-(propylsulfonamido)benzoyl)-1H-pyrrolo[2,3-b]pyridin-5-yl)phenyl)acetamide]","Selectivity Braf, IC50(off-target)/IC50(MKK4)",[1],◯ (3 ≥ IC50(off-target)/IC50(MKK4))
same,"Selectivity JNK1, IC50(off-target)/IC50(MKK4)",[2],◯ (3 ≥ IC50(off-target)/IC50(MKK4))
same,"Selectivity IVIKK7, IC50(off-target)/IC50(MKK4)",[3],+++ (IC50(off-target)/IC50(MKK4) > 100)
same,IC50,[4],100 to 1000 nM
"CCCS(=O)(=O)Nc1ccc(F)c(C(=O)c2c[nH]c3ncc(-c4cccc(C(F)(F)F)c4)cc23)c1F [Example 117, N-(2,4-difluoro-3-(5-(3-(trifluoromethyl)phenyl)-1H-pyrrolo[2,3-b]pyridine-3-carbonyl)phenyl)propane-1-sulfonamide]","Selectivity Braf, IC50(off-target)/IC50(MKK4)",[1],◯ (3 ≥ IC50(off-target)/IC50(MKK4))
same,"Selectivity JNK1, IC50(off-target)/IC50(MKK4)",[2],◯ (3 ≥ IC50(off-target)/IC50(MKK4))
same,"Selectivity IVIKK7, IC50(off-target)/IC50(MKK4)",[3],+++ (IC50(off-target)/IC50(MKK4) > 100)
same,IC50,[4],1000 to 10000 nM
"CCCS(=O)(=O)Nc1ccc(F)c(C(=O)c2c[nH]c3ncc(-c4ccccc4C#N)cc23)c1F [Example 118, N-(3-(5-(2-cyanophenyl)-1H-pyrrolo[2,3-b]pyridine-3-carbonyl)-2,4-difluorophenyl)propane-1-sulfonamide]","Selectivity Braf, IC50(off-target)/IC50(MKK4)",[1],◯ (3 ≥ IC50(off-target)/IC50(MKK4))
same,"Selectivity JNK1, IC50(off-target)/IC50(MKK4)",[2],+ (10 ≥ IC50(off-target)/IC50(MKK4) > 3)
same,"Selectivity IVIKK7, IC50(off-target)/IC50(MKK4)",[3],+++ (IC50(off-target)/IC50(MKK4) > 100)
same,IC50,[4],100 to 1000 nM
